Results reported in patent US9844513B2, “Oral pharmaceutical composition” (Sigmoid Pharma Limited, priority 2007, dated 2017).
Like-named read-outs stand apart in the source and are kept apart here.

Tests used:
[1] = cited from earlier work
DSS-induced colitis mice = test: DSS-induced colitis in mice (DSS 2.5% in drinking water); assay type: in vivo; settings: 8 mg DMOG every second day
Protocol: Colitis was induced in mice using DSS 2.5% in drinking water. DMOG mini-capsules of example 20 with two different coating were used, namely DSS-bead (0.25 mg—immediate release), and DSS-COAT-bead (DSS-COAT beads coated with 22% Surelease®—DMOG: 0.25 mg/day) and were compared to non-treated DSS-induced colitis mice and mice treated with 8 mg DMOG IP every second day. The minicapsules were prepared using the method described in Example 20 above.
As DMOG is known to increase the production of erythropoietin it is expected that in the presence of systemic DMOG that the packed cell volume would be increased. The packed cell volume (PCV) is a measurement of the proportion of blood that is made up of cells. The value is expressed as a percentage or fraction of cells in blood. The PCV rises when the number of red blood cells increases. […] Thus, it could be concluded that when administered within the intestinal or colonic lumen that it acts locally at low dose and negligible concentrations are systemically available.
Referring to FIG. 21, the disease activity index (DAI) is calculated as the sum of scores of weight loss, stool consistency and blood in feces. […] The minicapsules were prepared using the method described in Example 20 above.
A major symptom of DSS-induced colitis is weight loss. […] Likewise, when 0.25 mg DMOG is administered daily as colon-specific beads (DSS-COAT beads coated with 22% Surelease®—DMOG: 0.25 mg/day), the protective effect is pronounced. […] The minicapsules were prepared using the method described in Example 20 above.

[2] = tested on: antigen specific IgA and IgG; test: Antigen specific IgA and IgG in intestinal washes by ELISA after immunisation of mice; assay type: in vivo; settings: intestinal washes one week after booster
Protocol: FIG. 9 represents the immune response in mice immunised with minicapsules as described in Example 5 and Example 6. […] Mice were immunised on 3 consecutive days on week 0 followed by an identical series of booster immunisations at week 2. Intestinal washes were collected one week following the booster and antigen specific IgA and IgG was assessed by ELISA.

## COc1ccccc1OCCNCC(O)COc1cccc2[nH]c3ccccc3c12 (centres unmarked) [Carvedilol]
[1]; absorbed from the small intestine
  time to reach maximum plasma concentration: within two hours
[1]; colon
  relative absorption: ~7%
[1]; extensive first-pass metabolism
  absolute bioavailability: approximately 25%
[1]; ileum
  relative absorption: ~28%
[1]; in vivo
  half-life: 7 to 10 h
[1]; jejunum
  relative absorption: approximately 56%

## COC(=O)CNC(=O)C(=O)OC [DMOG, dimethyloxalglycine]
DSS-induced colitis mice; Day 7, IP
  colon length (colon shortening): significantly reduced colon shortening
  packed cell volume (PCV): increases the PCV
DSS-induced colitis mice; IP
  protective effect (weight loss) compared with non-treated DSS mice: significant protective effect
DSS-induced colitis mice; IP, 7 days
  Disease Activity Index (DAI): high DAI

B1: OVA in solution: Ovalbumin antigen given in solution, comparison group (protein, UniProt P01012 2-386, looked up)
Ovalbumin: GSIGAASMEFCFDVFKELKVHHANENIFYCPIAIMSALAMVYLGAKDSTRTQINKVVRFDKLPGFGDSIEAQCGTSVNVHSSLRDILNQITKPNDVYSFSLASRLYAEERYPILPEYLQCVKELYRGGLEPINFQTAADQARELINSWVESQTNGIIRNVLQPSSVDSQTAMVLVNAIVFKGLWEKAFKDEDTQAMPFRVTEQESKPVQMMYQIGLFRVASMASEKMKILELPFASGTMSMLVLLPDEVSGLEQLESIINFEKLTEWTSSNVMEERKIKVYLPRMKMEEKYNLTSVLMAMGITDVFSSSANLSGISSAESLKISQAVHAAHAEINEAGREVVGSAEAGVDAASVSEEFRADHPFLFCIKHIATNAVLFFGRCVSP
[2]
  titres of antigen specific IgG in the intestinal washes: highest responses
